How the values were obtained:
[1] = tested on: A2780 human ovarian carcinoma cells; experiment: Co-culture killing of human ovarian carcinoma cells (Example 4); type: cell-based; settings: pure drug, 100 μg cisplatin to 5×10^6 A2780 cells, 72 hours; FIG. 4E
Description: (§1) the third group of H22 mouse hepatoma cells and the third group of the A2780 human ovarian carcinoma cells are left without any treatment.
(§2) 4) half of the micro-particles taken from the above test group, and half of the cell vesicles taken from the control group are respectively co-cultured with 5×10^4 tumor cells taken from the third group of tumor cells of different types for 72 hours within a 24-pore plate, the death of the tumor cells is observed, wherein the cell vesicles that are co-cultured with the tumor cells are the cell vesicles derived from the same type of tumor cells, and the micro-particles that are co-cultured with the tumor cells are the micro-particles formed after the cell vesicles derived from the same type of tumor cells have the chemotherapeutic drug wrapped therein;

H22 mouse hepatoma cells = experiment: Co-culture killing of mouse hepatoma cells (Example 4); type: cell-based; settings: pure drug, 10 μg methotrexate to 5×10^6 H22 cells, 72 hours; FIG. 4B
Description: as §1, §2

With `N.N.[Cl][Pt][Cl]` [cisplatin] the “death of the tumor cells” value [1] was “there are still certain amount of tumor cells survived”.
For `CN(Cc1cnc2nc(N)nc(N)c2n1)c1ccc(C(=O)N[C@@H](CCC(=O)O)C(=O)O)cc1` [methotrexate], the “death of the tumor cells” value (H22 mouse hepatoma cells) was “there are still certain amount of tumor cells survived”.
